Our source for the Kd and IC50 values is PMC4857087, “A potential adjuvant chemotherapeutics, 18β-glycyrrhetinic acid, inhibits renal tubular epithelial cells apoptosis via enhancing BMP-7 epigenetically through targeting HDAC2” (Scientific Reports, 2016).

The target of experiment [1] is HDAC2 (Homo sapiens, UniProt Q92769). Nature of the experiment: SPR (Biacore T200, HDAC2 immobilized on CM5 chip, […] Langmuir fit). The class given is binding. (SPR reads the build-up and loss of mass on a sensor chip optically.)
Experiment [2] deals with HK2. Nature of the experiment: cells. Set-up: species or system mTEC; antiproliferative activity on renal tubular epithelial cells, 48 h. To be noted: Homo sapiens, HK-2, 48 h. How it is done:
GA could be transformed into 18β-glycyrrhetinic acid (18βGA) via biotransformation. At first, compounds GA and 18βGA were evaluated for their antiproliferative activities against mTEC and HK2 cell lines. The cells were allowed to proliferate in the presence of tested material for 48 h, and the results were reported in terms of IC50 values (Supplementary Table S2). […] Thus we chose GA 0.05, 0.1, 0.2, 0.4, 0.8 mM and 18βGA 2.5, 5, 10, 20, 30 μM to further evaluate the roles on KIM-1. […] Thus, 18βGA was chosen to discuss the mechanisms in AKI induced by CP. Cisplatin (CP), glycyrrhizic acid ammonium salt (GA), 18β-glycyrrhetinic acid (18βGA), Dimethyl sulfoxide (DMSO), MTT (3-(4, 5-dimethylthiazol-2-yl)-2, 5-diphenyltetrazoliumbromide) and all other chemicals were obtained from Sigma-Aldrich (St. Louis, MO, USA). BMP-7, KIM-1, Bcl-2 and Bax antibodies were purchased from Santa Cruz (CA, USA). β-actin antibody and secondary antibodies for goat anti-rabbit IgG HRP and rabbit anti-goat IgG HRP were purchased from Bioworld Technology (Nanjing, China). Creatinine (Cr) and Blood Urea Nitrogen (BUN) assay kit were purchased from Siemens (NY, USA).

Chain of HDAC2 (Q92769 whole entry): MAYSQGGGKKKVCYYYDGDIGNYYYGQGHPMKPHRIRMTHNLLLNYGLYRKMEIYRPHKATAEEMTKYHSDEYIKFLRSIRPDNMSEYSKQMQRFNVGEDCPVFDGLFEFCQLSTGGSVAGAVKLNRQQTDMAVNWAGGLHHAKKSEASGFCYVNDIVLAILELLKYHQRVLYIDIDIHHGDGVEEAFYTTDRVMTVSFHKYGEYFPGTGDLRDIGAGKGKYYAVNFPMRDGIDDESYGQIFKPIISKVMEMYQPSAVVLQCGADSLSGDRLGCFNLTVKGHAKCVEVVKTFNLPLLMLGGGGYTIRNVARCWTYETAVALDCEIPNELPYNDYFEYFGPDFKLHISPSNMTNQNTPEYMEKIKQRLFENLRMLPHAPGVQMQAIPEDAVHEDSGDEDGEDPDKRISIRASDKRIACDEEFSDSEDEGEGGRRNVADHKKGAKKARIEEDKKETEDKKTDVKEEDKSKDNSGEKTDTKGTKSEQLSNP

In the case of `CC1(C)[C@@H](O)CC[C@]2(C)[C@H]3C(=O)C=C4[C@@H]5C[C@@](C)(C(=O)O)CC[C@]5(C)CC[C@@]4(C)[C@]3(C)CC[C@@H]12` [18βGA, 18β-glycyrrhetinic acid], the affinity in experiment [1], expressed as Kd, was 0.613 µM. In addition, the IC50 (in general, the concentration that gives 50% inhibition) in experiment [2] came out at 0.073 mM.
